Source: patent publication US4973591A, “Parenteral formulations of 1-diphenylmethyl-4-((2-(4-methylphenyl)-5-methyl-1H-imidazol-4-yl)methyl )piperazine” (Syntex Pharmaceuticals, Ltd., priority 1988, dated 1990)
Counter-ions that a name gives are not always drawn.

Assays:
[1] = pH of salt solutions; assay type: physicochemical
[2] = solubility of active agent, its salts and cosolvent solutions; details: for solubility (in words): salts of the active agent
[3] = stability testing of formulations at 25° C. (content, pH, appearance); assay type: physicochemical
Description: Stability testing of the formulations is done, for example, as described in Remington's Pharmaceutical Sciences. […] A formulation is prepared and placed in suitable container, storing it at 25° C., and periodically observing the appearance of the samples and removing aliquots to be tested for concentration and pH.
At periodic intervals, the appearance of the samples was noted, and aliquots were withdrawn and assayed for active agent concentration and pH.

[4] = test system: calcium channel; details: statement in background; cited from earlier work
[5] = test system: rat tail vein; assay: rat tail vein injection (irritation / in vivo acceptability)
Description: In vivo acceptability is tested by injecting a small amount of the formulation into the tail vein of a rat or other suitable species, for example, as described by Waynforth, Experimental and Surgical Technique in the Rat, Chapter 2, pages 42-45 (Academic Press, 1980).
This procedure is a modification of a procedure described by Waynforth in Experimental and Surgical Technique in the Rat, Chapter 2, pages 42-45 (Academic Press, 1980). The rat tail vein is dilated by warming, and a test formulation administered by injection, using a 25G needle, with the rat held in a restrainer, and a heat source close enough to keep the tail warm during injection. The tail is observed for signs of irritation, which are outwardly apparent and can be detected by the presence of bruising, swelling, lack of flexibility, lumps, or by observation of distress in the animal upon subsequent administration.

[6] = compatibility with infusion fluids; assay type: physicochemical; details: wide range of commercially available infusion fluids
Description: Compatibility with infusion fluids is determined by adding a formulation of the invention to an infusion fluid and inspecting the resulting mixture for formation of any precipitate, discoloration, or the appearance of other physical changes, monitoring the solution active ingredient concentration to ensure no loss in potency, which could lead to decreases in efficacy.

[7] = test system: rats
[8] = test system: baboons
[9] = physchem
[10] = precipitation on dropping the injectable formulation into pH 7.4 phosphate buffer; assay type: physicochemical; details: approx. 1 ml injectable formulation into 50 ml 0.1M pH 7.4 phosphate buffer
[11] = in vivo; cited from earlier work

Question: With `Cc1ccc(-c2nc(CN3CCN(C(c4ccccc4)c4ccccc4)CC3)c(C)[nH]2)cc1` as the compound, how does the “pH relative to optimum range for physiological compatibility” value ([1]; when prepared at the desired concentrations) read?
Answer: Its value is “outside the optimum pH range for physiological compatibility”.

Question: With `Cc1ccc(-c2nc(C)c(CN3CCN(C(c4ccccc4)c4ccccc4)CC3)[nH]2)cc1` [malonic] as the compound, how does the “solubility (in words)” value [2] read?
Answer: Its value is “did not have adequate solubility”.

Question: Which results are given for `Cc1ccc(-c2nc(CN3CCN(C(c4ccccc4)c4ccccc4)CC3)c(C)[nH]2)cc1` [ascorbic acid salt]?
Answer: discolouration of solutions upon standing ([3]; solutions of ascorbic acid salt, on standing): rapid discolouration upon standing; solubility (in words) [2]: relatively insoluble

Question: With `Cc1ccc(-c2nc(CN3CCN(C(c4ccccc4)c4ccccc4)CC3)c(C)[nH]2)cc1` [1-Diphenylmethyl-4-[(2-(4-methylphenyl)-5-methyl-1H-imidazol-4-yl)methyl]piperazine] as the compound, how does the calcium channel antagonist [4] read?
Answer: Its calcium channel antagonist is “potent calcium channel antagonist”.

Question: What about the solubility problems ([2]; particularly at physiological pH, in formulation process and upon administration to test animals) of the same compound?
Answer: Its solubility problems is “significant solubility problems”.

Question: For `Cc1ccc(-c2nc(CN3CCN(C(c4ccccc4)c4ccccc4)CC3)c(C)[nH]2)cc1.O=C(O)C(O)C(O)C(=O)O` [tartrate salt, 1-diphenylmethyl-4-[(2-(4-methylphenyl)-5-methyl-1H -imidazol-4-yl)methyl]piperazine tartrate], which irritancy levels ([5]; one week tail vein injection trial) is on record?
Answer: Its irritancy levels is “Acceptable irritancy levels”.

Question: What about the pH in solution [1] of the same compound?
Answer: Its pH in solution is “greater than 3.0”.

Question: What about the “physical and chemical stability of the solution” value ([3]; storage at 25° C.) of the same compound?
Answer: The value was “at least 12 months”.

Question: And the “compatibility with infusion fluids” value [6]?
Answer: The value was “compatible with a wide range of commercially available infusion fluids”.

Question: What about the “administration over 28 days” value [7] of the same compound?
Answer: Its value is “successful administration”.

Question: And the “administration over 28 days” value [8]?
Answer: The value was “successful administration”.

Question: What about the solubility [9] of the same compound?
Answer: Its solubility is > 4000 µg/mL.

Question: For `Cc1ccc(-c2nc(CN3CCN(C(c4ccccc4)c4ccccc4)CC3)c(C)[nH]2)cc1` [sulfuric acid salt], which pH in solution [1] is on record?
Answer: Its pH in solution is 1.76.

Question: Which “signs of pain / irritation upon injection” value ([5]; 8 mg/ml solution, pH about 3-3.5, rat tail vein) does the source give for `Cc1ccc(-c2nc(CN3CCN(C(c4ccccc4)c4ccccc4)CC3)c(C)[nH]2)cc1.Cl.Cl.Cl` [1-diphenylmethyl-4-[(2-(4-methylphenyl)-5-methyl-1H-imidazol-4-yl)methyl]piperazine, trihydrochloride] here?
Answer: Its value is “bruising of the vein, hardening of the tail and other signs of pain upon injection”.

Question: What about the “compound precipitation in rat tail veins” value ([5]; 8 mg/ml solution, pH about 3-3.5 adjusted with sodium hydroxide, shortly after injection) of the same compound?
Answer: Its value is “compound precipitation was observed in rat tail veins shortly after injection”.

Question: What about the precipitate at interface [10] of the same compound?
Answer: The precipitate at interface was “a white precipitate was observed immediately at the interface between the two liquids”.

Question: With `Cc1ccc(-c2nc(C)c(CN3CCN(C(c4ccccc4)c4ccccc4)CC3)[nH]2)cc1` [oxalic] as the compound, how does the “solubility (in words)” value [2] read?
Answer: Its value is “did not have adequate solubility”.

Question: Which “changes in properties of salts” value ([2]; salts investigated for adequate solubility at physiologically acceptable pH and reduced irritancy) does the source give for `Cc1ccc(-c2nc(C)c(CN3CCN(C(c4ccccc4)c4ccccc4)CC3)[nH]2)cc1` [aspartic] here?
Answer: The value was “only moderate changes in properties”.

Question: For `Clc1ccccc1CN1CCc2sccc2C1` [ticlopidine], which “reduction of the risk of a second ischemic event” value [11] is on record?
Answer: Its value is “demonstrated to reduce the risk of a second ischemic event”.
